Source: article PMC8411703 (Frontiers in Pharmacology, 2021)

How the values were obtained:
[1] = Experimental: This study was a prospective, multicentric, PK/PD study. It included pediatric patients who were admitted to the pediatric ICU between July 2017 and November 2019 at two hospitals in Santiago, Chile. The Ethical Committee for Research of Clinica Las Condes approved this prospective study (approval number: M012017) and required signed written informed consent from each patient’s parents. […] Neonates were excluded.
Meropenem was administered as a 3-h infusion with intravenous doses of 20–40 mg/kg every 8 or 12 h. […] Both antibiotics’ doses were adjusted according to renal function. Blood samples were collected at 1 and 3 h post-infusion and before the following dose for meropenem.
Unbound meropenem plasma concentrations were determined by high-performance liquid chromatography (Agilent Infinity 1,260, Santa Clara, United States) with a UV detector. The methodology was adapted to the equipment conditions from available publications ([Elkhaïli et al., 1996]; [McWhinney et al., 2010]; [Wolff et al., 2013]) and validated according to the recommendations of the Bioanalytical Method Validation Guidance for Industry ([U.S. Department of Health and Human Services, 2018]). The stationary phase was a Zorbax Eclipse Plus C18 column (3.5 μm, 75 × 4.6 mm) and the mobile phase was acetonitrile with 10 mM ammonium acetate (pH 4.0) (5:95, organic solvent:buffer initiallity) in gradient to minute 7(50:50, organic solvent:buffer). Meropenem was detected by UV detection at 298 nm. The flow rate was 1.0 ml/min. […] Standard curves were prepared in blank human plasma. […] Meropenem in plasma samples was quantified using the peak area of standard samples for calibrations.
For both analytes, the measurement was performed on the free-drug, non-protein bound fraction.
Pharmacokinetic modelling was performed using PMetrics 1.5.0 with RStudio 0.99.902 and digital compiler Gfortran 5.2. […] Primary pharmacokinetic parameters of CL and Vd for the central compartment were calculated. Elimination from the central compartment and inter-compartmental distribution were modelled as first-order processes. Inter-compartmental distribution was described as rate of transfer from the unbound compartment to a peripheral compartment (Kcp) and rate of transfer from a peripheral compartment to the unbound compartment (Kpc). […] Volume of the peripheral compartment (Vp) was calculated as (Vc*Kcp)/Kpc, where Vc is the volume of the central compartment. Total Vd was calculated as the sum of Vc and Vp.
We selected the final model on the basis of minimizing the Akaike Information Criterion (AIC) and likelihood of the nested models (-2*Log-likelihood, -2*LL), with both criteria penalized by the number of parameters in the model. A reduction of -2*LL as calculated within Pmetrics was used for statistical comparison of nested models. We also factored bias (mean weighted predicted-observed error) and imprecision (bias-adjusted, mean weighted squared predicted-observed error) and correlation co-efficient into the selection of the final model. Shrinkage was calculated as the percentage of total variance in each model probability distribution.
Covariate model building was performed using sequential assessment of biologically plausible clinical characteristics. Continuous data was used for all covariates tested, with the exception of gender, which was male/female. The association of the covariates versus parameters was assessed by regression with linear or non-linear associations able to be used in the covariate model testing with inclusion based upon biological plausibility and a statistically significant improvement in log-likelihood. Inclusion age (months), weight (kg), height (cm), gender, C-reactive protein (mg/L), albumin (g/L), total bilirubin (mg/dl), serum creatinine (mg/dl), 24-h hydric balance (ml).

Pseudomonas aeruginosa = conditions: in vivo
Protocol: For meropenem analysis, we used the plasma concentration at 1 h after the end of a 3-h infusion of the drug corresponding to a dosing interval of 50%.

[2] = in vivo; cited from earlier work
[3] = parameters: method as in Rybak, 2006; conditions: ref Rybak, 2006; cited from earlier work
[4] = pediatric ECMO patients, 11 PK profiles, population median

Row | CL (clearance of meropenem), median ([1]; human, in vivo) [mL/min/kg] | Kcp (rate of transfer central to peripheral compartment), meropenem, mean ([1]; human, in vivo) [h⁻¹] | Kcp, meropenem, median ([1]; human, in vivo) [h⁻¹] | Kpc (rate of transfer peripheral to central compartment), meropenem, mean ([1]; human, in vivo) [h⁻¹] | Kpc, meropenem, median ([1]; human, in vivo) [h⁻¹] | Vc (central volume of distribution of meropenem), median ([1]; human, in vivo) [L/kg] | Vd (vc + vp), meropenem, mean ([1]; human, in vivo) [L/kg] | Vp (Vc*kcp/kpc), meropenem, mean ([1]; human, in vivo) [L/kg] | PK profiles achieving PK/PD target fT 50% > 4 x MIC (Pseudomonas aeruginosa) [%] | Compound | meropenem clearance in most reported studies, range [2] [mL/min/kg] | Kcp (rate of transfer central to peripheral compartment), vancomycin, mean ([1]; pediatric ECMO patients, 11 PK profiles, population mean) [h⁻¹] | Kcp, vancomycin, median [1, 4] [h⁻¹] | Kpc, vancomycin, median [1, 4] [h⁻¹] | elimination route [3]
1 | 2.4 | 1.37 | 1.30 | 1.25 | 1.34 | 0.289 | 0.606 | 0.317 | 91 | C[C@@H](O)[C@H]1C(=O)N2C(C(=O)O)=C(S[C@@H]3CN[C@H](C(=O)N(C)C)C3)[C@H](C)[C@H]12 [meropenem] | 2.17 to 17.55 | – | – | – | –
2 | – | – | – | – | – | – | – | – | – | CN[C@H](CC(C)C)C(=O)N[C@H]1C(=O)N[C@@H](CC(N)=O)C(=O)N[C@H]2C(=O)N[C@H]3C(=O)N[C@H](C(=O)N[C@H](C(=O)O)c4cc(O)cc(O)c4-c4cc3ccc4O)[C@H](O)c3ccc(c(Cl)c3)Oc3cc2cc(c3O[C@@H]2O[C@H](CO)[C@@H](O)[C@H](O)[C@H]2O[C@H]2C[C@](C)(N)[C@H](O)[C@H](C)O2)Oc2ccc(cc2Cl)[C@H]1O [vancomycin] | – | 0.483 | 0.481 | 0.286 | nearly completely renally eliminated
